Experimental data taken from ChEMBL document CHEMBL6121016, “Design, Synthesis, and Biological Evaluation of 1,3,4-Thiadiazole Derivatives as Novel Potent Peptide Deformylase Inhibitors for Combating Drug-Resistant Gram-Positive and -Negative Bacteria” (J Med Chem, 2025).
Values after ≈ are worked out from the molar mass of the structure shown.

Assays:
Format in all cases: functional
Conditions in all cases: time 16-18 hrs
Acinetobacter baumannii [1] = assay: Antibacterial activity against Acinetobacter baumannii Bio 34235 after 16 to 18 hrs by broth microdilution method
Acinetobacter baumannii [2] = assay: Antibacterial activity against drug-resistant Acinetobacter baumannii Bio 53272 after 16 to 18 hrs by broth microdilution method
Staphylococcus aureus [3] = assay: Antibacterial activity against methicillin-resistant Staphylococcus aureus ATCC 33591 after 16 to 18 hrs by broth microdilution method
Staphylococcus aureus [4] = assay: Antibacterial activity against methicillin-resistant Staphylococcus aureus Bio-090770 after 16 to 18 hrs by broth microdilution method
Staphylococcus aureus [5] = assay: Antibacterial activity against methicillin-resistant Staphylococcus aureus ATCC 43300 after 16 to 18 hrs by broth microdilution method
Staphylococcus aureus [6] = assay: Antibacterial activity against methicillin-susceptible Staphylococcus aureus ATCC 29213 after 16 to 18 hrs by broth microdilution method
Klebsiella pneumoniae = assay: Antibacterial activity against Klebsiella pneumoniae CICC 21611 after 16 to 18 hrs by broth microdilution method
[7] = test system: Staphylococcus epidermidis; assay: Antibacterial activity against Staphylococcus epidermidis after 16 to 18 hrs by broth microdilution method
Staphylococcus aureus [8] = assay: Antibacterial activity against methicillin-susceptible Staphylococcus aureus ATCC 25923 after 16 to 18 hrs by broth microdilution method
Escherichia coli = assay: Antibacterial activity against Escherichia coli ATCC 25922 after 16 to 18 hrs by broth microdilution method
Staphylococcus aureus [9] = assay: Antibacterial activity against methicillin-susceptible Staphylococcus aureus ATCC 13709 after 16 to 18 hrs by broth microdilution method

SMILES | MIC (Acinetobacter baumannii [1]) [µg/mL] | MIC (Acinetobacter baumannii [2]) [µg/mL] | MIC (Staphylococcus aureus [3]) [µg/mL] | MIC (Staphylococcus aureus [4]) [µg/mL] | MIC (Staphylococcus aureus [5]) [µg/mL] | MIC (Staphylococcus aureus [6]) [µg/mL] | MIC (Klebsiella pneumoniae) [µg/mL] | MIC [7] [µg/mL] | MIC (Staphylococcus aureus [8]) [µg/mL] | MIC (Escherichia coli) [µg/mL] | MIC (Staphylococcus aureus [9]) [µg/mL]
CCCC[C@H](CN(O)C=O)C(=O)N1CCC[C@H]1c1nnc(-c2ccc([N+](=O)[O-])cc2C(F)(F)F)s1 | > 16 | > 16 | 0.5 (≈ 0.97 µM) | 1 (≈ 1.94 µM) | 0.5 (≈ 0.97 µM) | 1 (≈ 1.94 µM) | > 16 | 4 (≈ 7.76 µM) | 2 (≈ 3.88 µM) | > 16 | 0.5 (≈ 0.97 µM)
CCCC[C@H](CN(O)C=O)C(=O)N1CCC[C@H]1c1nnc(-c2sccc2C)s1 | 32 (≈ 75.7 µM) | 16 (≈ 37.9 µM) | 0.25 (≈ 0.592 µM) | 0.5 (≈ 1.18 µM) | 0.25 (≈ 0.592 µM) | 0.5 (≈ 1.18 µM) | 16 (≈ 37.9 µM) | 0.5 (≈ 1.18 µM) | 0.5 (≈ 1.18 µM) | 64 (≈ 151 µM) | 0.5 (≈ 1.18 µM)
CCCC[C@H](CN(O)C=O)C(=O)N1CCC[C@H]1c1nnc(-c2ccc(Br)s2)s1 | 32 (≈ 65.6 µM) | 16 (≈ 32.8 µM) | 0.25 (≈ 0.513 µM) | 2 (≈ 4.1 µM) | 0.25 (≈ 0.513 µM) | 2 (≈ 4.1 µM) | 32 (≈ 65.6 µM) | 1 (≈ 2.05 µM) | 1 (≈ 2.05 µM) | 64 (≈ 131 µM) | 2 (≈ 4.1 µM)
CCCC[C@H](CN(O)C=O)C(=O)N1CCC[C@H]1c1nnc(-c2ccns2)s1 | 32 (≈ 78.1 µM) | 16 (≈ 39.1 µM) | 0.25 (≈ 0.61 µM) | 2 (≈ 4.88 µM) | 0.5 (≈ 1.22 µM) | 1 (≈ 2.44 µM) | 16 (≈ 39.1 µM) | 0.5 (≈ 1.22 µM) | 1 (≈ 2.44 µM) | 64 (≈ 156 µM) | 1 (≈ 2.44 µM)
CCCC[C@H](CN(O)C=O)C(=O)N1CCC[C@H]1c1nnc(-c2ccccc2F)s1 | 16 (≈ 38 µM) | 8 (≈ 19 µM) | 0.5 (≈ 1.19 µM) | 1 (≈ 2.38 µM) | 0.5 (≈ 1.19 µM) | 1 (≈ 2.38 µM) | > 16 | 2 (≈ 4.76 µM) | 0.5 (≈ 1.19 µM) | 16 (≈ 38 µM) | 0.5 (≈ 1.19 µM)
CCCC[C@H](CN(O)C=O)C(=O)N1CCC[C@H]1c1nnc(C2CC2)s1 | > 16 | > 16 | 1 (≈ 2.73 µM) | 4 (≈ 10.9 µM) | 1 (≈ 2.73 µM) | 4 (≈ 10.9 µM) | > 16 | 0.5 (≈ 1.36 µM) | 2 (≈ 5.46 µM) | > 16 | 2 (≈ 5.46 µM)
CCCC[C@H](CN(O)C=O)C(=O)N1CCC[C@H]1c1nnc(-c2cscn2)s1 | 64 (≈ 156 µM) | 16 (≈ 39.1 µM) | 0.5 (≈ 1.22 µM) | 2 (≈ 4.88 µM) | 0.5 (≈ 1.22 µM) | 1 (≈ 2.44 µM) | 32 (≈ 78.1 µM) | 0.25 (≈ 0.61 µM) | 1 (≈ 2.44 µM) | 64 (≈ 156 µM) | 1 (≈ 2.44 µM)
CCCC[C@H](CN(O)C=O)C(=O)N1CCC[C@H]1c1nnc(-c2ccc(C(F)(F)F)cc2F)s1 | > 16 | > 16 | 0.25 (≈ 0.512 µM) | 1 (≈ 2.05 µM) | 1 (≈ 2.05 µM) | 2 (≈ 4.09 µM) | > 16 | 4 (≈ 8.19 µM) | 2 (≈ 4.09 µM) | > 16 | 2 (≈ 4.09 µM)
CCCC[C@H](CN(O)C=O)C(=O)N1CCC[C@H]1c1nnc(-c2ccc(OC)c(OC)c2)s1 | > 16 | 16 (≈ 34.6 µM) | 0.25 (≈ 0.54 µM) | 1 (≈ 2.16 µM) | 0.25 (≈ 0.54 µM) | 0.5 (≈ 1.08 µM) | > 16 | 2 (≈ 4.32 µM) | 1 (≈ 2.16 µM) | > 16 | 1 (≈ 2.16 µM)
CCCC[C@H](CN(O)C=O)C(=O)N1CCC[C@H]1c1nnc(-c2ccccc2OC)s1 | 16 (≈ 37 µM) | 16 (≈ 37 µM) | 2 (≈ 4.62 µM) | 2 (≈ 4.62 µM) | 0.5 (≈ 1.16 µM) | 0.5 (≈ 1.16 µM) | > 16 | 2 (≈ 4.62 µM) | 1 (≈ 2.31 µM) | 16 (≈ 37 µM) | 1 (≈ 2.31 µM)
CCCC[C@H](CN(O)C=O)C(=O)N1CCC[C@H]1c1nnc(C2CCCC2)s1 | > 16 | 8 (≈ 20.3 µM) | 0.5 (≈ 1.27 µM) | 2 (≈ 5.07 µM) | 0.5 (≈ 1.27 µM) | 2 (≈ 5.07 µM) | > 16 | 1 (≈ 2.53 µM) | 1 (≈ 2.53 µM) | > 16 | 2 (≈ 5.07 µM)
CCCC[C@H](CN(O)C=O)C(=O)N1CCC[C@H]1c1nnc(-c2ccc(F)cc2)s1 | > 16 | 8 (≈ 19 µM) | 0.25 (≈ 0.595 µM) | 2 (≈ 4.76 µM) | 1 (≈ 2.38 µM) | 2 (≈ 4.76 µM) | > 16 | 2 (≈ 4.76 µM) | 2 (≈ 4.76 µM) | 16 (≈ 38 µM) | 1 (≈ 2.38 µM)
CCCC[C@H](CN(O)C=O)C(=O)N1CCC[C@H]1c1nnc(-c2ccco2)s1 | 16 (≈ 40.8 µM) | 16 (≈ 40.8 µM) | 0.5 (≈ 1.27 µM) | 2 (≈ 5.1 µM) | 0.5 (≈ 1.27 µM) | 2 (≈ 5.1 µM) | 32 (≈ 81.5 µM) | 0.5 (≈ 1.27 µM) | 4 (≈ 10.2 µM) | 64 (≈ 163 µM) | 1 (≈ 2.55 µM)
CCCC[C@H](CN(O)C=O)C(=O)N1CCC[C@H]1c1nnc(-c2ccc(C(C)(C)C)cc2)s1 | > 16 | > 16 | 1 (≈ 2.18 µM) | 4 (≈ 8.72 µM) | 1 (≈ 2.18 µM) | 2 (≈ 4.36 µM) | > 16 | 4 (≈ 8.72 µM) | 4 (≈ 8.72 µM) | > 16 | 2 (≈ 4.36 µM)
CCCC[C@H](CN(O)C=O)C(=O)N1CCC[C@H]1c1nnc(-c2cc(C(F)(F)F)cc(C(F)(F)F)c2)s1 | > 16 | > 16 | 2 (≈ 3.71 µM) | 4 (≈ 7.43 µM) | 2 (≈ 3.71 µM) | 4 (≈ 7.43 µM) | > 16 | > 16 | 2 (≈ 3.71 µM) | > 16 | 2 (≈ 3.71 µM)
CCCC[C@H](CN(O)C=O)C(=O)N1CCC[C@H]1c1nnc(CCC)s1 | > 16 | > 16 | 1 (≈ 2.71 µM) | 4 (≈ 10.9 µM) | 1 (≈ 2.71 µM) | 2 (≈ 5.43 µM) | > 16 | 2 (≈ 5.43 µM) | 2 (≈ 5.43 µM) | > 16 | 2 (≈ 5.43 µM)
CCCC[C@H](CN(O)C=O)C(=O)N1CCC[C@H]1c1nnc(-c2ccc(F)cn2)s1 | 16 (≈ 38 µM) | 8 (≈ 19 µM) | 0.5 (≈ 1.19 µM) | 2 (≈ 4.74 µM) | 0.5 (≈ 1.19 µM) | 1 (≈ 2.37 µM) | > 16 | 2 (≈ 4.74 µM) | 2 (≈ 4.74 µM) | 16 (≈ 38 µM) | 2 (≈ 4.74 µM)
CN[C@H](CC(C)C)C(=O)N[C@H]1C(=O)N[C@@H](CC(N)=O)C(=O)N[C@H]2C(=O)N[C@H]3C(=O)N[C@H](C(=O)N[C@H](C(=O)O)c4cc(O)cc(O)c4-c4cc3ccc4O)[C@H](O)c3ccc(c(Cl)c3)Oc3cc2cc(c3O[C@@H]2O[C@H](CO)[C@@H](O)[C@H](O)[C@H]2O[C@H]2C[C@](C)(N)[C@H](O)[C@H](C)O2)Oc2ccc(cc2Cl)[C@H]1O [VANCOMYCIN] | 16 (≈ 11 µM) | 16 (≈ 11 µM) |  |  | 0.25 (≈ 0.173 µM) |  | 16 (≈ 11 µM) | 16 (≈ 11 µM) |  | 16 (≈ 11 µM) | 
